Source: ChEMBL document CHEMBL5331078, “1-Benzyloxy-5-phenyltetrazole derivatives highly active against androgen receptor-dependent prostate cancer cells” (Eur J Med Chem, 2023)

Legend:
CWR22R = assay: Antiproliferative activity against AR-v7 positive human 22Rv1 cells measured after 3 days by celltiter-glo luminescence assay; type: functional, cell-based
[1] = Antiproliferative activity against Ar-luc mouse Adipose stromal cell measured after 3 days by celltiter-glo luminescence assay; type: toxicity, cell-based; details: Ar-luc mouse adipose stromal cells
PC-3 = assay: Antiproliferative activity against human PC-3 cells measured after 3 days by celltiter-glo luminescence assay; type: functional, cell-based; details: PC-3, 72 h
[2] = Kinetic solubility of the compound in 0.01 M HCl at pH 2 after 30 mins by nephelometry; type: physicochemical; details: read-out: Kinetic_solubility
[3] = Metabolic stability in mouse liver microsomes assessed as intrinsic clearance incubated for 60 mins in presence of NADPH-regenerating system; type: ADME, Microsome; details: microsomes, 1 h
[4] = Kinetic solubility of the compound in phosphate buffer at pH 6.5 after 30 mins by nephelometry; type: physicochemical; details: read-out: Kinetic_solubility
[5] = Metabolic stability in mouse liver microsomes assessed as half life incubated for 60 mins in presence of NADPH-regenerating system; type: ADME, Microsome; details: microsomes, 1 h
[6] = Partition coefficient, logD of the compound at pH 7.4 by HPLC analysis; type: physicochemical; details: octanol/water
Papain = target: T1, Papain (Carica papaya, UniProt P00784); assay: Inhibition of papaya papain protease activity assessed as covalent binding mode of action at 10 uM incubated for 30 mins by absorbance based analysis; details: 0.5 h
T1 sequence (P00784 whole entry): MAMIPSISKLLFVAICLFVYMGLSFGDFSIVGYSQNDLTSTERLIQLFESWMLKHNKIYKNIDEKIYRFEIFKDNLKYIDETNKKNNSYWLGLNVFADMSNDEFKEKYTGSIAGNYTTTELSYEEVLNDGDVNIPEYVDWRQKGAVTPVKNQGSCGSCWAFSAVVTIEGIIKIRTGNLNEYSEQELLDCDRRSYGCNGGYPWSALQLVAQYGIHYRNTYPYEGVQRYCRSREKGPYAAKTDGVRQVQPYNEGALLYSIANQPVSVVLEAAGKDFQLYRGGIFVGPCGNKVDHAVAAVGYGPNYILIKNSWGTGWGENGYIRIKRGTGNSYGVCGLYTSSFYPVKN

[7] = Homo sapiens, 22Rv1, 72 h, read-out: IC50

SMILES | IC50 (CWR22R; [7]) [µM] | IC50 at 3 days [1] [µM] | IC50 (PC-3) [µM] | other results
O=C(Nn1nnnc1-c1ccccc1)c1ccc(Cl)cc1 | > 10 | – | – | –
Fc1cccc(COn2nnnc2-c2ccc(Cl)cc2)c1 | 0.012 | 2.6 | > 100 | –
Fc1ccc(On2nnnc2-c2ccc(Cl)cc2)cc1 | > 10 | – | > 10 | –
COc1ccc(-c2nnnn2OCc2cccc(Cl)c2)cc1 | 0.023 | 6.8 | > 100 | –
Clc1ccc(-c2nnnn2OCc2ccc(Cl)c(Cl)c2)cc1 | 0.1 | > 60 | > 60 | –
Cc1nn(C)c(Cl)c1-c1nnnn1OCc1ccc(Cl)cc1 | – | – | – | IC50 (CWR22R; cwr22r): Not Active
Fc1ccc(CO/N=C\c2ccc(Cl)cc2)cc1 | > 10 | – | > 10 | –
Clc1ccc(On2nnnc2-c2ccc(Cl)cc2)cc1 | > 10 | – | > 10 | –
COc1ccc(-c2nnnn2OC(F)(F)c2ccccc2)cc1 | 5.41 | – | > 10 | –
COc1ccc(COn2nnnc2-c2ccc(OC)cc2)cc1 | 9.1 | – | > 10 | –
Clc1ccc(COn2nnnc2-c2cccc(Cl)c2)cc1 | 2.03 | 36.3 | > 100 | –
COc1ccc(COn2nnnc2-c2ccc(Cl)cc2)cc1 | > 10 | – | > 10 | –
Fc1ccc(On2nnnc2-c2ccc(F)cc2)cc1 | > 10 | – | > 10 | –
Clc1ccc(-c2nnnn2OCC2CC2)cc1 | > 10 | – | > 10 | –
CC(C)(c1ccc(Cl)cc1)n1nnnc1-c1ccc(Cl)cc1 | > 10 | – | – | –
CNC(=O)c1ccc(N2C(=S)N(c3ccc(C#N)c(C(F)(F)F)c3)C(=O)C2(C)C)cc1F [ENZALUTAMIDE] | 36 | – | 42 | –
Fc1ccc(-c2nnnn2OCc2cccc(Cl)c2)cc1 | 0.076 | > 60 | > 100 | –
Clc1ccc(CCOn2nnnc2-c2ccc(Cl)cc2)cc1 | > 10 | – | – | –
Clc1ccc(-c2nnnn2OCC2CCCCC2)cc1 | > 10 | – | > 10 | –
Clc1ccc(-c2nnnn2OCc2ccccc2)cc1 | 0.04 | – | 0.566 | –
Clc1ccc(-c2nnnn2OCc2cccc(Cl)c2)cc1 | 0.073 | > 60 | 6.79 | solubility kinetic at 0.5 h [2]: < 1.6 µg/mL; CLH [3]: 147 µL/min/mg; solubility kinetic at 0.5 h [4]: < 1.6 µg/mL; t1/2 [5]: 2.45 h; logD [6]: 4.5
Fc1ccc(-c2nnnn2OCCc2ccc(Cl)cc2)cc1 | > 10 | – | – | –
Fc1ccc(-c2nnnn2OCc2ccc(Cl)s2)cc1 | 3.75 | > 100 | > 100 | –
Fc1ccc(-c2nnnn2OCc2ccnc(Cl)c2)cc1 | 0.5 | 15 | > 100 | –

SMILES | IC50 (CWR22R; [7]) [µM] | IC50 at 3 days [1] [µM] | IC50 (PC-3) [µM] | other results
Fc1ccc(-c2nnnn2OCc2ccc(Cl)c(Cl)c2)cc1 | 0.066 | 23.4 | > 100 | –
COc1ccc(-c2nnnn2OCc2ccc(Cl)cc2)cc1 | 0.025 | 22.9 | 30.2 | –
Clc1cccc(COn2nnnc2-c2cccnc2)c1 | 3.55 | – | > 10 | –
Fc1ccc(COn2nnnc2-c2ccc(Cl)cc2)cc1 | 0.031 | 5.4 | 25.7 | –
CC(On1nnnc1-c1ccc(Cl)cc1)c1ccc(Cl)cc1 (stereo not drawn) | 1.71 | – | > 10 | –
CC(C)(On1nnnc1-c1ccc(Cl)cc1)c1ccc(Cl)cc1 | > 10 | – | – | –
Clc1ccc(-c2nnnn2OCc2cccc(Br)c2)cc1 | 0.066 | > 100 | > 100 | –
FC(F)(F)c1cccc(COn2nnnc2-c2cccc(C(F)(F)F)c2)c1 | > 10 | – | > 10 | –
Cc1nn(C)c(Cl)c1-c1nnnn1OCc1cccc(Cl)c1 | – | – | – | IC50 (CWR22R; cwr22r): Not Active
Clc1ccc(-c2nnnn2OCc2ccc(Cl)nc2)cc1 | 0.391 | 3 | > 100 | –
Clc1ccc(COn2nnnc2-c2ccc(Cl)cc2Cl)cc1 | 3.79 | > 100 | > 100 | –
FC(F)(F)c1cccc(COn2nnnc2-c2ccc(Cl)cc2)c1 | 0.261 | 4.9 | 16.8 | –
Clc1cccc(COn2nnnc2-c2cccc(Cl)c2)c1 | 0.036 | 10.6 | > 100 | –
Clc1ccc(CCn2nnnc2-c2ccc(Cl)cc2)cc1 | > 10 | – | – | –
Clc1ccc(-c2nnnn2OCc2ccc(Br)cc2)cc1 | 0.023 | 13.8 | 52.1 | –
Clc1cccc(COn2nnnc2-c2ccc(Cl)cc2Cl)c1 | 0.4 | > 100 | > 100 | –
FC(F)(On1nnnc1-c1ccc(Cl)cc1)c1ccccc1 | > 10 | – | > 10 | inhibition (INH) (Papain): Not Active
Fc1ccc(-c2nnnn2OC(F)(F)c2ccc(Cl)cc2)cc1 | > 10 | – | > 10 | –
Clc1ccc(-c2nnnn2OCc2ccc(Cl)s2)cc1 | 0.131 | > 60 | > 100 | –
Clc1ccc(-c2nnnn2OCc2ccnc(Cl)c2)cc1 | 0.022 | 7 | 14.2 | –
Clc1ccc(COn2nnnc2-c2cccnc2)cc1 | – | – | – | IC50 (CWR22R; cwr22r): Not Active
Clc1ccc(/C=N\OCc2ccc(Cl)cc2)cc1 | > 10 | – | > 10 | –
Fc1ccc(-c2nnnn2OCc2ccc(Cl)cc2)cc1 | 0.74 | > 100 | 47.4 | inhibition (INH) (Papain): Not Active
